From ChEMBL document CHEMBL1201862, “PubChem BioAssay data set” (2004)
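Each compound was tested at five concentrations against cells in 96-well plates for 48 hours. Abbreviation: GI50, concentration required for 50% inhibition of growth.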 Activity calls are given as the source filed them. Rule as the data show it: active = GI50 up to about 1.1 µM and inactive = higher.

Key:
Assay in all cases: NCI-60 cell line screen, 48 h
[1] = system: A498
[2] = system: CCRF-CEM
[3] = system: COLO 205
[4] = system: IGROV-1
[5] = system: K562
[6] = system: KM-20L2
[7] = system: LOX IMVI
[8] = system: NCI-H226
[9] = system: OVCAR-4
[10] = system: OVCAR-5
[11] = system: SF-295
[12] = system: SK-MEL-2
[13] = system: U-251
[14] = system: HOP-62
[15] = system: KM12
[16] = system: Malme-3M
[17] = system: OVCAR-8
[18] = system: TK-10
[19] = system: UACC-257
[20] = system: DU-145

Measured: GI50

O=C(CC1(O)C(=O)Nc2ccccc21)c1ccc(Cl)c(Cl)c1 (stereo not drawn)
inactive: [1] > 100 µM | [2] 63.8 µM | [3] > 100 µM | [4] > 100 µM | [5] > 100 µM | [6] > 100 µM | [7] > 100 µM | [8] > 100 µM | [9] > 100 µM | [10] > 100 µM | [11] > 100 µM | [12] > 100 µM | [13] > 100 µM

CC1=NOC(=O)/C1=C/c1ccccc1O
inactive: [2] > 100 µM | [3] > 100 µM | [14] > 100 µM | [4] > 100 µM | [5] > 100 µM | [6] > 100 µM | [15] > 100 µM | [7] > 100 µM | [16] > 100 µM | [8] > 100 µM | [9] > 100 µM | [10] > 100 µM | [17] > 100 µM | [11] > 100 µM | [12] > 100 µM | [18] > 100 µM | [13] > 100 µM | [19] > 100 µM

Cc1ccn2c(c1)nc1nc3ccccc3nc12
inactive: [2] > 100 µM | [3] > 100 µM | [14] > 100 µM | [4] > 100 µM | [5] > 100 µM | [6] > 100 µM | [15] > 100 µM | [7] > 100 µM | [8] > 100 µM | [9] > 100 µM | [10] > 100 µM | [17] > 100 µM | [11] > 100 µM | [12] > 100 µM | [18] > 100 µM | [13] > 100 µM | [19] > 100 µM

COC1=CC(=Nc2c(Cl)cc(Cl)cc2OC(=O)c2ccc([N+](=O)[O-])cc2)C=C(OC)C1=O
inactive: [2] 2.87 µM | [3] 17.5 µM | [14] 21.5 µM | [4] 14.5 µM | [5] 2.53 µM | [6] 17.7 µM | [15] 15.5 µM | [7] 1.81 µM | [16] 15.5 µM | [8] 15.2 µM | [9] 10 µM | [10] 19.5 µM | [17] 7.35 µM | [11] 11.5 µM | [12] 15.8 µM | [18] 22.8 µM | [13] 13.8 µM | [19] 11.7 µM

O=c1/c(=C/c2cccc3ccccc23)sc2nc3ccccc3n12
inactive: [1] > 100 µM | [3] > 100 µM | [14] > 100 µM | [4] > 100 µM | [5] > 100 µM | [6] > 100 µM | [15] > 100 µM | [7] > 100 µM | [16] > 100 µM | [8] > 100 µM | [9] > 100 µM | [10] > 100 µM | [17] > 100 µM | [11] > 100 µM | [12] > 100 µM | [18] > 100 µM | [13] > 100 µM | [19] > 100 µM

O=C(NCCc1ccccn1)c1ccc2cc(C(=O)N3CC(CCl)c4ccc([N+](=O)[O-])cc43)[nH]c2c1 (stereo not drawn)
inactive: [1] > 57.7 µM | [2] > 100 µM | [3] > 100 µM | [20] > 52.4 µM | [14] 13.2 µM | [4] 53.6 µM | [5] > 100 µM | [15] > 100 µM | [7] > 100 µM | [16] 10.9 µM | [8] > 58.9 µM | [9] 4.31 µM | [10] 97.9 µM | [17] 9.12 µM | [11] > 35.3 µM | [12] > 100 µM | [18] 20.7 µM | [13] 18.5 µM | [19] > 46.3 µM

C=CCc1cc(OC)c2c(c1)C(OC)CC(c1ccc(OC)c(OC)c1)O2 (stereo not drawn)
inactive: [1] > 100 µM | [2] > 100 µM | [3] > 100 µM | [14] > 100 µM | [4] > 100 µM | [5] 61.8 µM | [6] > 100 µM | [15] > 100 µM | [7] > 100 µM | [16] 55.1 µM | [9] > 100 µM | [10] > 100 µM | [17] > 100 µM | [11] > 100 µM | [12] > 100 µM | [18] > 100 µM | [13] > 100 µM | [19] > 100 µM

CC[C@@H]1C[C@H]2CC3c4[nH]c5ccc(O)cc5c4CCN(C2)C31
inactive: [2] > 100 µM | [3] > 100 µM | [14] > 100 µM | [4] > 100 µM | [5] 99.5 µM | [6] > 100 µM | [15] > 100 µM | [7] > 100 µM | [16] > 100 µM | [8] > 100 µM | [10] > 100 µM | [17] > 100 µM | [11] > 100 µM | [12] > 100 µM | [18] > 100 µM | [13] > 100 µM | [19] > 100 µM
